pIC50: −log10 of the molar value. Blank lines part the entries; values can stand above or below the compound they belong to.
Legend:
[1] = Drug concentration at steady state in human at 15 mg, po QD for 14 days after 24 hrs; format: ADME, organism-based; settings: in vivo, read-out: Css
[2] = biological target: ATP-binding cassette sub-family C member 2 (Homo sapiens, UniProt Q92887); assay: Inhibition of human MRP2 overexpressed in Sf9 cell membrane vesicles assessed as uptake of [3H]-estradiol-17beta-D-glucuronide in presence of ATP and GSH measured after 20 mins by membrane vesicle transport assay
ATP-binding cassette sub-family C member 2, sequence (Q92887 whole entry): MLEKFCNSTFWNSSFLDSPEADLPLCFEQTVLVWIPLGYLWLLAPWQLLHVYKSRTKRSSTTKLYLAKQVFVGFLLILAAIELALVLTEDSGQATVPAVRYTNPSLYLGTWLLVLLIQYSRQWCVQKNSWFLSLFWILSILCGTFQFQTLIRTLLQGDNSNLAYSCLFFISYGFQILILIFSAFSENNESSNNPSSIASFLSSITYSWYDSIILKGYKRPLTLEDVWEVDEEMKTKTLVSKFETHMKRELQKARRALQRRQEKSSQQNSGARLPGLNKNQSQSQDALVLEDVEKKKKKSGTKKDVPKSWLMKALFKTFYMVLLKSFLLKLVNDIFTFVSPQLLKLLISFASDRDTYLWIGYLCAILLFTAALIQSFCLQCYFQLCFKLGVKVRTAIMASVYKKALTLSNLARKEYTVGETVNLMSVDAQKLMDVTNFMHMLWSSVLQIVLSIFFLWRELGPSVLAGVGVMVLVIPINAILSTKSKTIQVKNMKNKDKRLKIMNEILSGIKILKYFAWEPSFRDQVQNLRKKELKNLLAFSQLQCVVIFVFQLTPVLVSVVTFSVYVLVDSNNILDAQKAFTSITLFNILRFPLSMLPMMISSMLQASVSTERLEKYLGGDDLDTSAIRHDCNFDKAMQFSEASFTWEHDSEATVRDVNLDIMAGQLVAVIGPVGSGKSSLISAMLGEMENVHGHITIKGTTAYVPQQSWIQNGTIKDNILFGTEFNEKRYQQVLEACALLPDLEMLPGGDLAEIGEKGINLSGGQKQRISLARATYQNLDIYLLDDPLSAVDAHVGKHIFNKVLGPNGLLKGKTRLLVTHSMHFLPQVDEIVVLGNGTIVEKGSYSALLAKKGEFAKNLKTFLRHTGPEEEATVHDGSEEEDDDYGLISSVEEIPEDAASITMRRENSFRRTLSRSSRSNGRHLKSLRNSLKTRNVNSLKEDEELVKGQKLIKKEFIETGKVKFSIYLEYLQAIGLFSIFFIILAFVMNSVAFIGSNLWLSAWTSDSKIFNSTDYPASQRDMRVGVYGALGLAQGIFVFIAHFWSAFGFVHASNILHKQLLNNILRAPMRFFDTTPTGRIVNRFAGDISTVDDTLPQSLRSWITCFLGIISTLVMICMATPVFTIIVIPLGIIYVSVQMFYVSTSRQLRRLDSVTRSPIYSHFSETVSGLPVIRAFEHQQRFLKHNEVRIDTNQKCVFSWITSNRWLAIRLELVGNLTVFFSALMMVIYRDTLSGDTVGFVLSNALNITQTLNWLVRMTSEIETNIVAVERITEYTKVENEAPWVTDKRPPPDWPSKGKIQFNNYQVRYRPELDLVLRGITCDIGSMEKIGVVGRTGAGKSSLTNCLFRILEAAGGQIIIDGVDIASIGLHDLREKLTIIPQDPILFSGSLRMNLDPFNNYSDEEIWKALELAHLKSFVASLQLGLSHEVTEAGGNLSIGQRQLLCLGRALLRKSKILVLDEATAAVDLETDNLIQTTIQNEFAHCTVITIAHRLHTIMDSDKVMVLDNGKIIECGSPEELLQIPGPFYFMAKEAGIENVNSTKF

[3] = biological target: T1, ATP-binding cassette sub-family C member 4 (Homo sapiens, UniProt O15439); assay: Inhibition of human MRP4 overexpressed in Sf9 cell membrane vesicles assessed as uptake of [3H]-estradiol-17beta-D-glucuronide in presence of ATP and GSH measured after 20 mins by membrane vesicle transport assay; format: ADME, cell-based
T1 sequence (O15439 whole entry): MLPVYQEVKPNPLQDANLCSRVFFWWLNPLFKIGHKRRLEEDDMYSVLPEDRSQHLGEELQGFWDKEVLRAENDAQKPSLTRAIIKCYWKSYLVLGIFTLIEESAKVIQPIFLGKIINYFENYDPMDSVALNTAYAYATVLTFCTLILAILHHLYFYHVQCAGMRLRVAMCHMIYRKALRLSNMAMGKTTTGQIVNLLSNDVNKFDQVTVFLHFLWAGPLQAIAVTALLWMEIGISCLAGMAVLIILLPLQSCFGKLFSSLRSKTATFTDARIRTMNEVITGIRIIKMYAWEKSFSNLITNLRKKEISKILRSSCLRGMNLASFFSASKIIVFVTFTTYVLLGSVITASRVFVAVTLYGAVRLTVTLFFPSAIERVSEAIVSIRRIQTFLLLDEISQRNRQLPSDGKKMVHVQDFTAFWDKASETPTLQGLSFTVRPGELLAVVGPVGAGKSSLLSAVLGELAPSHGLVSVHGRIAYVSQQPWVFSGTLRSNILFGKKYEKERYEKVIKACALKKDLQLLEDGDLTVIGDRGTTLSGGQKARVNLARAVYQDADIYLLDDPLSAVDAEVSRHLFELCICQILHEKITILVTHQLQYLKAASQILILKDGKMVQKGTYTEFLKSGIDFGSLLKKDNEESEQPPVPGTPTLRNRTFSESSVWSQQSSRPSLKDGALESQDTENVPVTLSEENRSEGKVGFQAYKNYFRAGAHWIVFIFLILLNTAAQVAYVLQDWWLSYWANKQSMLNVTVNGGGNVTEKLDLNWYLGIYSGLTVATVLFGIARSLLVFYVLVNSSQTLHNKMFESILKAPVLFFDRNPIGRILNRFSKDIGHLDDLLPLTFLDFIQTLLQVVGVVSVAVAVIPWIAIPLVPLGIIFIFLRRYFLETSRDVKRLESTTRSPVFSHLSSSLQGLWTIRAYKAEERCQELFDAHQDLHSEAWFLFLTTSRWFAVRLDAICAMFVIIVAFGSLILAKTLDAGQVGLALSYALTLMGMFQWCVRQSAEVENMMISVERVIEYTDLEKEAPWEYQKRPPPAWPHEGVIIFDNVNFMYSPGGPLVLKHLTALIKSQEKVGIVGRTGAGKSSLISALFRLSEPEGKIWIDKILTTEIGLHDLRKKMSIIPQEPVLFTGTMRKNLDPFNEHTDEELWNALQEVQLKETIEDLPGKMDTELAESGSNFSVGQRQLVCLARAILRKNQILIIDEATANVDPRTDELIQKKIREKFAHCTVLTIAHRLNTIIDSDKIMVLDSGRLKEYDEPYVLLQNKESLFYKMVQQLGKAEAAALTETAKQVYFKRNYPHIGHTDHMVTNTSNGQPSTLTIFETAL

[4] = biological target: ATP-binding cassette sub-family C member 3 (Homo sapiens, UniProt O15438); assay: Inhibition of human MRP3 overexpressed in Sf9 insect cell membrane vesicles assessed as uptake of [3H]-estradiol-17beta-D-glucuronide in presence of ATP and GSH measured after 10 mins by membrane vesicle transport assay; format: ADME, cell-based
ATP-binding cassette sub-family C member 3, sequence (O15438 whole entry): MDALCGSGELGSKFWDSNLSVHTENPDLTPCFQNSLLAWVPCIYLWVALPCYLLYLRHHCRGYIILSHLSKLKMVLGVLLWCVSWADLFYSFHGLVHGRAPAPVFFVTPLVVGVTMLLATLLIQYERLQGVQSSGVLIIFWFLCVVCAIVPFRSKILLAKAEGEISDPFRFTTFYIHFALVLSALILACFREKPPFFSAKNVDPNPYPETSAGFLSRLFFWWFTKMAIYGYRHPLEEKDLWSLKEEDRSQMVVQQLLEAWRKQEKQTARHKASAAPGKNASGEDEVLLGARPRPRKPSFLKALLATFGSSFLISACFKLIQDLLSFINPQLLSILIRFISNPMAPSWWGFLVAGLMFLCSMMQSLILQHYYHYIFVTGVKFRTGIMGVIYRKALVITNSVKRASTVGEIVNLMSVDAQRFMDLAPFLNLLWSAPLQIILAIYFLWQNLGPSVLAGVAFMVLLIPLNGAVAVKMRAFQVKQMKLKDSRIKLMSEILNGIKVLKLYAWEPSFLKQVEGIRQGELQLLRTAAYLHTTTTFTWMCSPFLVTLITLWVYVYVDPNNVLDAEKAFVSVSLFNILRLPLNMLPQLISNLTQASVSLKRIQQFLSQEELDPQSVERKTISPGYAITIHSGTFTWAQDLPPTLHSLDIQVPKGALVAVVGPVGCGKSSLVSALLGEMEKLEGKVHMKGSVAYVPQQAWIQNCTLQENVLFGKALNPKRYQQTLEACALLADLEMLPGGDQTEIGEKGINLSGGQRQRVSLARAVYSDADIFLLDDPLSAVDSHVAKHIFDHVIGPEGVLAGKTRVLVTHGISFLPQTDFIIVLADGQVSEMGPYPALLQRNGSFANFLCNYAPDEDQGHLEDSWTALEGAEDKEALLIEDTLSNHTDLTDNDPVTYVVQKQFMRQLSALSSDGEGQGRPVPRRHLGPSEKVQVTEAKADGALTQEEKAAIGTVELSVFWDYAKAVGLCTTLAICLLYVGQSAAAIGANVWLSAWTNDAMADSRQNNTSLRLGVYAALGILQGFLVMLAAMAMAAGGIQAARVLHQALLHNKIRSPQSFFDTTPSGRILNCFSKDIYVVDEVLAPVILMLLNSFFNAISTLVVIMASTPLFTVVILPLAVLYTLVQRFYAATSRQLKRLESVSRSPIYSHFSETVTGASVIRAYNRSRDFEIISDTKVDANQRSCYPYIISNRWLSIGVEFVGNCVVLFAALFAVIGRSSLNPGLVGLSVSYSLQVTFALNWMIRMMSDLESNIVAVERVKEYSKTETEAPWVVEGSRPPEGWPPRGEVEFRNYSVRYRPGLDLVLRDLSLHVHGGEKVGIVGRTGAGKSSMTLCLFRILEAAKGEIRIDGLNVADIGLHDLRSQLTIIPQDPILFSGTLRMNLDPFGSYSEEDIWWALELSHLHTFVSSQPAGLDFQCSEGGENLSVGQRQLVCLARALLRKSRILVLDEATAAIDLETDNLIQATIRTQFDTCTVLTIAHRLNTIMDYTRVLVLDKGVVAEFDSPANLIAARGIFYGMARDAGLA

[5] = AUC in human at 15 mg, po QD for 14 days after 24 hrs; format: ADME, organism-based; set-up: dose 15 mg, time < 24 hr, route oral; settings: in vivo
[6] = Ratio of drug concentration at steady state in human at 15 mg, po QD for 14 days after 24 hrs to IC50 for human BSEP overexpressed in Sf9 insect cells; format: ADME, organism-based; settings: in vivo
[7] = tested on: Homo sapiens; assay: Drug concentration at steady state in human at 0.075 to 0.26 mg/kg, po after 24 hrs; format: ADME, organism-based; settings: in vivo
[8] = Ratio of drug concentration at steady state in human at 0.075 to 0.26 mg/kg, po after 24 hrs to IC50 for human MRP2 overexpressed in Sf9 insect cells; format: ADME, organism-based; settings: in vivo
[9] = biological target: Bile salt export pump (Homo sapiens, UniProt O95342); assay: Inhibition of human BSEP overexpressed in Sf9 cell membrane vesicles assessed as uptake of [3H]-taurocholate in presence of ATP measured after 15 to 20 mins by membrane vesicle transport assay; format: ADME, cell-based
Bile salt export pump, sequence (O95342 whole entry): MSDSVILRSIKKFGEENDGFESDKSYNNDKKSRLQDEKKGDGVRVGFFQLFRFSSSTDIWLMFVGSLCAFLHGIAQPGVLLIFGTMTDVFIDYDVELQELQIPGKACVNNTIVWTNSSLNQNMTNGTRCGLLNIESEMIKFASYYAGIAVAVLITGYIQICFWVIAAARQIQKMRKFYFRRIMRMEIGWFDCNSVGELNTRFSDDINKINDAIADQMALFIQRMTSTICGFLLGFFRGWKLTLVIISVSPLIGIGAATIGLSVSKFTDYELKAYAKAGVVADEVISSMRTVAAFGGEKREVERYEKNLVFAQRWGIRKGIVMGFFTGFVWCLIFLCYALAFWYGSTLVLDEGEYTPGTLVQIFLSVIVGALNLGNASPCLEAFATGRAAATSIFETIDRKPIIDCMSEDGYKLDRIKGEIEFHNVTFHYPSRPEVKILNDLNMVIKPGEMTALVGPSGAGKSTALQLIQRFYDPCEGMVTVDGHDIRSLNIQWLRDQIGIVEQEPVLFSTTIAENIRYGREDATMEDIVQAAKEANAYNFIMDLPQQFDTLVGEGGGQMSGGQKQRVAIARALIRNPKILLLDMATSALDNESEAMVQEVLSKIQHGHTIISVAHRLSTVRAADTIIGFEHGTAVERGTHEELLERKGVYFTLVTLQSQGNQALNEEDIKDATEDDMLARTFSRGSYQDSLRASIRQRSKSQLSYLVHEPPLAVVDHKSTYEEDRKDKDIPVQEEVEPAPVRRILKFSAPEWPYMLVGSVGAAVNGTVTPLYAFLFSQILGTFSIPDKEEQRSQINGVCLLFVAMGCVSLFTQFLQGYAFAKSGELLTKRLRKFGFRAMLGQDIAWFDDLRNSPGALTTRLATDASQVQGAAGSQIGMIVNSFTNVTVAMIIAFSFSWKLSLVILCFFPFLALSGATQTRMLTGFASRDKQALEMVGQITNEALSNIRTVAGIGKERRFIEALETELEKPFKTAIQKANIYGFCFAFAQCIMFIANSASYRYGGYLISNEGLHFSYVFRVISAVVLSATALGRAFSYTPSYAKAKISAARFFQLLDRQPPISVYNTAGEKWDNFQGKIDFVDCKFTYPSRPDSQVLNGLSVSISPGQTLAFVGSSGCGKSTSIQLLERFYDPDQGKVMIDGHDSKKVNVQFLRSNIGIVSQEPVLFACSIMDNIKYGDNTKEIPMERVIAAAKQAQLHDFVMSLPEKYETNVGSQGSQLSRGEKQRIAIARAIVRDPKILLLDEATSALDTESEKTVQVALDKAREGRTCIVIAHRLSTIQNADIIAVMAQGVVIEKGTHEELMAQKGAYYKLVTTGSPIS

[10] = Ratio of drug concentration at steady state in human at 0.075 to 0.26 mg/kg, po after 24 hrs to IC50 for human BSEP overexpressed in Sf9 insect cells; format: ADME, organism-based; settings: in vivo
[11] = AUC in human at 0.075 to 0.26 mg/kg, po after 24 hrs; format: ADME, organism-based; settings: in vivo
[12] = Ratio of drug concentration at steady state in human at 0.5 to 4 mg, po BID/TID/QID after 6 hrs to IC50 for human BSEP overexpressed in Sf9 insect cells; format: ADME, organism-based; settings: in vivo
[13] = Drug concentration at steady state in human at 0.5 to 4 mg, po BID/TID/QID after 6 hrs; format: ADME, organism-based; settings: in vivo, read-out: Css
[14] = Ratio of drug concentration at steady state in human at 0.5 to 4 mg, po BID/TID/QID after 6 hrs to IC50 for human MRP4 overexpressed in Sf9 insect cells; format: ADME, organism-based; settings: in vivo
[15] = Ratio of drug concentration at steady state in human at 0.5 to 4 mg, po BID/TID/QID after 6 hrs to IC50 for human MRP2 overexpressed in Sf9 insect cells; format: ADME, organism-based; settings: in vivo
[16] = Ratio of drug concentration at steady state in human at 0.5 to 4 mg, po BID/TID/QID after 6 hrs to IC50 for human MRP3 overexpressed in Sf9 insect cells; format: ADME, organism-based; settings: in vivo
[17] = AUC in human at 0.5 to 4 mg, po BID/TID/QID after 6 hrs; format: ADME, organism-based; settings: in vivo
[18] = Ratio of drug concentration at steady state in human at 300 to 900 mg, po QD after 24 hrs to IC50 for human BSEP overexpressed in Sf9 insect cells; format: ADME, organism-based; settings: in vivo
[19] = Ratio of drug concentration at steady state in human at 300 to 900 mg, po QD after 24 hrs to IC50 for human MRP4 overexpressed in Sf9 insect cells; format: ADME, organism-based; settings: in vivo
[20] = Ratio of drug concentration at steady state in human at 300 to 900 mg, po QD after 24 hrs to IC50 for human MRP2 overexpressed in Sf9 insect cells; format: ADME, organism-based; settings: in vivo
[21] = AUC in human at 300 to 900 mg, po QD after 24 hrs; format: ADME, organism-based; settings: in vivo
[22] = Drug concentration at steady state in human at 300 to 900 mg, po QD after 24 hrs; format: ADME, organism-based; settings: in vivo, read-out: Css
[23] = AUC in alopecia patient at 1 mg, po QD after 24 hrs; format: ADME, organism-based; set-up: time < 24 hr, dose 1 mg, route oral; settings: human, in vivo
[24] = Drug concentration at steady state in alopecia patient at 1 mg, po QD after 24 hrs; format: ADME, organism-based; settings: human, in vivo, read-out: Css
[25] = Drug concentration at steady state in benign prostate hyperplasia patient at 5 mg, po QD after 24 hrs; format: ADME, organism-based; settings: male, human, in vivo, read-out: Css
[26] = Ratio of drug concentration at steady state in human in benign prostate hyperplasia patient at 5 mg, po QD after 24 hrs to IC50 for human BSEP overexpressed in Sf9 insect cells; format: ADME, organism-based; settings: in vivo
[27] = Ratio of drug concentration at steady state in human in alopecia patient at 1 mg, po QD after 24 hrs to IC50 for human BSEP overexpressed in Sf9 insect cells; format: ADME, organism-based; settings: in vivo
[28] = Ratio of drug concentration at steady state in human in alopecia patient at 1 mg, po QD after 24 hrs to IC50 for human MRP4 overexpressed in Sf9 insect cells; format: ADME, organism-based; settings: in vivo
[29] = AUC in benign prostate hyperplasia patient at 5 mg, po QD after 24 hrs; format: ADME, organism-based; set-up: time < 24 hr, dose 5 mg, route oral; settings: male, human, in vivo
[30] = Ratio of drug concentration at steady state in human in benign prostate hyperplasia patient at 5 mg, po QD after 24 hrs to IC50 for human MRP4 overexpressed in Sf9 insect cells; format: ADME, organism-based; settings: in vivo

pIC50 [2]: 4.39
Css [7]: 11 nM
pIC50 [3]: < 3.88
Ratio [8]: 0
pIC50 [4]: < 3.88
AUC at 24 h [11]: 0.252 µM·h
Structure (SMILES): C=CC[C@@H]1/C=C(\C)C[C@H](C)C[C@H](OC)[C@H]2O[C@@](O)(C(=O)C(=O)N3CCCC[C@H]3C(=O)O[C@H](/C(C)=C/[C@@H]3CC[C@@H](O)[C@H](OC)C3)[C@H](C)[C@@H](O)CC1=O)[C@H](C)C[C@@H]2OC [TACROLIMUS ANHYDROUS]
pIC50 [9]: 5.14
Ratio [10]: 0.001

pIC50 [2]: 4.30
Ratio [19]: 0.006
Ratio [20]: 0.002
AUC at 24 h [21]: 2.43 µM·h
pIC50 [3]: 4.80
pIC50 [4]: < 3.88
concentration at 24 h [22]: 101 nM
Structure (SMILES): CO[C@H]1/C=C/O[C@@]2(C)Oc3c(C)c(O)c4c(c3C2=O)C2=NC3(CCN(CC(C)C)CC3)NC2=C(NC(=O)/C(C)=C\C=C\[C@H](C)[C@H](O)[C@@H](C)[C@@H](O)[C@@H](C)[C@H](OC(C)=O)[C@@H]1C)C4=O [RIFABUTIN]
Ratio [18]: 0.004

Second part, the compound before the results:

Structure (SMILES): COc1cc(NC(C)CCCN)c2ncccc2c1 (stereo not drawn) [PRIMAQUINE]
concentration at 24 h [1]: 71 nM
pIC50 [2]: < 3.88
pIC50 [3]: < 3.88
pIC50 [4]: < 3.88
AUC at 24 h [5]: 1.71 µM·h
Ratio [6]: 0.002

Structure (SMILES): CCOc1cc(CC(=O)N[C@@H](CC(C)C)c2ccccc2N2CCCCC2)ccc1C(=O)O [REPAGLINIDE]
Ratio [12]: 0.00075
pIC50 [2]: 4.14
concentration at 6 h [13]: 16 nM
Ratio [14]: 0
pIC50 [3]: 4.27
Ratio [15]: 0
Ratio [16]: 0.001
pIC50 [9]: 4.66
AUC at 6 h [17]: 0.099 µM·h
pIC50 [4]: 4.78

Structure (SMILES): CC(C)(C)NC(=O)[C@H]1CC[C@H]2[C@@H]3CC[C@H]4NC(=O)C=C[C@]4(C)[C@H]3CC[C@]12C [FINASTERIDE]
pIC50 [2]: < 3.88
AUC at 24 h [23]: 0.993 µM·h
concentration at 24 h [24]: 41 nM
pIC50 [3]: 4.29
concentration at 24 h [25]: 41 nM
Ratio [26]: 0.00147
Ratio [27]: 0.00147
pIC50 [4]: < 3.88
Ratio [28]: 0.001
AUC at 24 h [29]: 0.993 µM·h
Ratio [30]: 0.001
